US7541156B1, “Method of identifying antinociceptive compounds using protease activated receptor-2” (priority 2000, dated 2009)
“Also recorded” adds a separate entry of the source.

What was measured:
[1] = system: peripheral afferent nerve endings; details: subcutaneous injection of 500 μg into the rat paw; cited from earlier work
[2] = system: pancreatic afferent neurons / spinal segments T8-T10; test: c-FOS expression in spinal cord segments after pancreatic intraductal injection; type: in vivo, rat
Protocol: Intraductal (pancreatic duct) injection. To administer the necessary peptides directly into the rat pancreatic duct we followed a modified protocol, previously described by Kim et al. (1996). In brief, rats were anesthetized i.p. with nembutal sodium (Abbot Laboratories, Chicago, Ill.) (50 mg/kg body weight). The peritoneum was incised to expose the duodenum and the duodenal loop was pulled out. The pancreatic duct entering the duodenum was identified under dissecting microscope and a small niche was made into the duct with a 30-gauge needle. A polyethylene 10 tubing (0.61 mm outer diameter) (Becton Dickinson and Company, Franklin Lakes, N.J.) was guided into the duct and tied to secure its position. The common bile duct was ligated close to the liver to prevent entry of the injected substance into the liver. Similarly the duct was ligated near its entry into the duodenum. The position of the tube into the pancreatic duct was confirmed by freely flowing bile through the tubing. […] Thirty minutes later Capsaicin 0.5 mg/kg (total volume 500 μl) or vehicle (1×PBS, 10% ETOH, 1% Tween) was injected to half of the AcPep or CoPep injected rats. Three rats were included in each treatment group (n=3 for number of experiments). The tubing was carefully removed and bile flow from the liver into the duodenum was re-established. The abdominal cavity was closed with sutures. Rats were sacrificed 2.5 hrs after the initial injection.
C-fos staining. Rats were anesthetized with sodium pentobarbital (50 mg/kg i.p.) and perfused with 200 mls PBS followed by 500 mls ice-cold freshly prepared 4% paraformaldehyde in PBS. Spinal cord (level T5-T13) was removed, post-fixed in 4% paraformaldehyde for 18 hrs at 4° C. and placed in PBS (pH 7.4) containing 30% sucrose for 24 hrs at 4° C. Frozen sections (40 μm) were cut on a cryostat and stored as floating sections in PBS at 4° C. Every third section was stained for c-fos with a rabbit polyclonal serum, 1:1000 dilution, (c-fos, Ab-5, Oncogene Research Products) utilizing manufacturer's protocol. Antibody staining was visualized using a biotinylated secondary antisera and Vectastain ABC peroxidase kit with DAB as substrate. Sections were mounted on Superfrost Plus slides (VWR Scientific, West Chester, Pa.) and dehydrated. The number of c-FOS immunoreactive (IR) neurons were counted in 10 randomly chosen sections per segment under brightfield illumination and then averaged.
Statistics. Release data are presented as the mean± standard error of the mean (SEM) of wells from three separate experiments. […] Intraductal injection studies were analyzed using a repeated measure ANOVA and individual means were compared using a Newman-Keuls multiple comparison test. […]

PAR-1 = target: T1, PAR-1 (Homo sapiens, UniProt P25116); details: Blackhart et al. 1996; cited from earlier work
T1 sequence (P25116 22-425): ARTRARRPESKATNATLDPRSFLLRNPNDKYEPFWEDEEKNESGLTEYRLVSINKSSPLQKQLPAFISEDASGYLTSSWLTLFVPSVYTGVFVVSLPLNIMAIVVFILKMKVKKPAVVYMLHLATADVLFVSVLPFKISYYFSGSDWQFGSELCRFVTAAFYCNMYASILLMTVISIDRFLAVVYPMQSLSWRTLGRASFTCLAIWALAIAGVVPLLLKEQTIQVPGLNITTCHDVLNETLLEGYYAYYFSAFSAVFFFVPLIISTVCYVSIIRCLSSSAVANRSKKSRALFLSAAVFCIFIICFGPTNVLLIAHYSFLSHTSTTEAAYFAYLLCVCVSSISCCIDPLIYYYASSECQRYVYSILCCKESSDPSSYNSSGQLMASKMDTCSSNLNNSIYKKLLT

For “SLIGRL (PEPTIDE (1)..(6) PAR-2 activating peptide; listed as Rattus sp.) [AcPep]”, the “release of CGRP and Substance P from peripheral afferent nerve endings” value [1] is given as “results in the release of CGRP and Substance P”, the “c-FOS IR neurons in segments T8-T10, peptide alone” value ([2]; 100 μM infused into the pancreatic duct, 2.5 hours, compared to CoPep) is given as “more c-FOS IR neurons; also recorded: does increase c-FOS expression” and the “c-FOS expression in spinal segments T8-T10, peptide alone” value ([2]; intraductal injection of AcPep 10 μM, 2.5 hours later, compared to control rats) is given as “significantly increased”. For the same substance, the “Capsaicin-evoked c-FOS expression in segments T8-T10” value ([2]; peptide 100 μM intraductal, followed 30 min later by Capsaicin 0.5 mg/kg, 2.5 hours) was “more c-FOS; also recorded: enhanced Capsaicin-evoked c-FOS expression” and the “activation of PAR-1” value (PAR-1) was “does not activate PAR-1”.
